Results from US5723299A, “Somatostatin receptors” (Arch Development Corporation, priority 1995, dated 1998).
Where two headings read alike, the source gives them in different places.

Legend:
[1] = system: somatostatin receptor proteins (58-kDa, 42-kDa, 27-kDa); details: background; AtT-20 and GH3 cells; cited from earlier work
hGPR81 (SSTR1) [2] = molecular target: T1, hGPR81 (SSTR1) (Homo sapiens, UniProt P30872); assay: Ca^2+ efflux in oocytes injected with hGPR81 RNA; format: cell-based; details: laevis oocytes injected with in vitro transcribed RNA
T1 construct: in vitro transcribed RNA injected into Xenopus laevis oocytes
Method: (§1) Since the presence of a short cytoplasmic loop connecting transmembrane segments M5-M6 is a feature of G protein-coupled receptors that bind peptide hormones and neuropeptides (E. M. Ross, 1990), peptides known to regulate hormone secretion from pancreatic islets were tested as ligands for hGPR81. Initial attempts to identify the ligand for hGPR81 by injecting RNA transcribed in vitro into fenopus laevis oocytes (Kayano et al., 1990) and assessing changes in basal or stimulated cAMP levels in response to […] [calcitonin-gene-related peptide, gastric inhibitory polypeptide, glucagon, glucagon-like peptide 1-(7-36 amide), and vasoactive intestinal peptide], or Ca^2+ efflux (Williams et al., 1988) (angiotensin II, bombesin, cholecystokinin, and vasopressin) were unsuccessful. The binding of radiolabeled peptides (galanin, glucagon and somatostatin) to COS-7 cells transiently expressing hGPR81 was attempted, as well.

hGPR81 (SSTR1) [3] = molecular target: T1, hGPR81 (SSTR1); assay: Changes in basal or stimulated cAMP levels in oocytes injected with hGPR81 RNA; format: cell-based; details: laevis oocytes injected with in vitro transcribed RNA
Method: as §1

[4] = system: growth hormone, insulin, glucagon, gastric acid and pancreatic exocrine secretion; details: background, Brazeau et al., 1973, Wass, 1989, cited from earlier work
[5] = system: 58 to 60-kDa somatostatin receptor protein; details: background; rat brain and AtT-20 cells; cited from earlier work

T1 sequence (P30872 whole entry): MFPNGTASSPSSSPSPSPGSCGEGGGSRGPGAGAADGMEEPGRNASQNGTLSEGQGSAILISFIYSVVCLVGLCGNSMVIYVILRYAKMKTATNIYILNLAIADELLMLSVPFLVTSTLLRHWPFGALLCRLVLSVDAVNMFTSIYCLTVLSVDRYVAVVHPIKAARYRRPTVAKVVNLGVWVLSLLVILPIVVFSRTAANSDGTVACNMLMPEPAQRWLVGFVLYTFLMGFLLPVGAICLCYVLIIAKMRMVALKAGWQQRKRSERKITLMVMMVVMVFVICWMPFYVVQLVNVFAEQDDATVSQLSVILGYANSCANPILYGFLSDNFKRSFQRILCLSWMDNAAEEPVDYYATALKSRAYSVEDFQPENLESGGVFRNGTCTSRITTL

Nc1nc2c(ncn2[C@@H]2O[C@H](COP(=O)(O)OP(=O)(O)OP(=O)(O)O)[C@@H](O)[C@H]2O)c(=O)[nH]1 [GTP]
inhibition of labeling of somatostatin receptor proteins [1]: sensitive to inhibition

NC(=O)CC[C@@H]1NC(=O)[C@H](Cc2ccccc2)NC(=O)[C@H](Cc2ccc(O)cc2)NC(=O)[C@@H](N)CSSC[C@@H](C(=O)N2CCC[C@H]2C(=O)N[C@@H](CCCN=C(N)N)C(=O)NCC(N)=O)NC(=O)[C@H](CC(N)=O)NC1=O [vasopressin]
identification as ligand for hGPR81 by Ca^2+ efflux (hGPR81 (SSTR1) [2]): unsuccessful

angiotensin II: peptide known to regulate hormone secretion from pancreatic islets (DRVYIHPF)
identification as ligand for hGPR81 by Ca^2+ efflux (hGPR81 (SSTR1) [2]): unsuccessful

bombesin
identification as ligand for hGPR81 by Ca^2+ efflux (hGPR81 (SSTR1) [2]): unsuccessful

calcitonin-gene-related peptide
identification as ligand for hGPR81 by changes in basal or stimulated cAMP levels (hGPR81 (SSTR1) [3]): unsuccessful

gastric inhibitory polypeptide: peptide known to regulate hormone secretion from pancreatic islets
identification as ligand for hGPR81 by changes in basal or stimulated cAMP levels (hGPR81 (SSTR1) [3]): unsuccessful

glucagon-like peptide 1-(7-36 amide)
identification as ligand for hGPR81 by changes in basal or stimulated cAMP levels (hGPR81 (SSTR1) [3]): unsuccessful

glucagon: peptide known to regulate hormone secretion from pancreatic islets
identification as ligand for hGPR81 by changes in basal or stimulated cAMP levels (hGPR81 (SSTR1) [3]): unsuccessful

somatostatin-14
inhibition of secretion [4]: relatively more selective for inhibition of glucagon and gastric acid secretion | inhibition of secretion ([4]; listed as Somatostatin): potent inhibitor of growth hormone secretion | inhibition of labeling of somatostatin receptor proteins [1]: sensitive to inhibition | binding to 58 to 60-kDa receptor protein [5]: high affinity and specificity

somatostatin-28: bioactive form of somatostatin derived via tissue-specific proteolytic processing of prosomatostatin (Bachem)
inhibition of secretion [4]: more specific inhibitor of growth hormone, insulin and pancreatic exocrine secretion | binding to 58 to 60-kDa receptor protein [5]: high affinity and specificity

vasoactive intestinal peptide: peptide known to regulate hormone secretion from pancreatic islets
identification as ligand for hGPR81 by changes in basal or stimulated cAMP levels (hGPR81 (SSTR1) [3]): unsuccessful
